Data on 26 compounds can be found in US8735414B2 (priority 2009, dated 2014).

By IC50 is commonly meant the point on the concentration scale where inhibition reaches its midpoint. For orientation: melting point means the temperature of the solid-liquid transition.

A value given as a limit tells only on which side of the number the result lay.

For series [1], the system named is bicistronic HCV replicon (replicon RNA, GenBank Accession No. AJ242654). Kind of series: HCV Replicon Assay. The format is cell-based. The conditions noted are these: Hepatitis C virus, 72 h, read-out: Replicon IC50. In general terms: Replicon systems follow genome replication, usually without infectious particles.

As for `CC(C)(C)S(=O)(=O)Nc1ccc(-c2c(C#N)c3cc(F)c(C4CC4)cc3n2-c2ccccc2)cn1` [compound 1101, N-[5-(3-cyano-6-cyclopropyl-5-fluoro-1-phenyl-1H-indol-2-yl)pyridin-2-yl]-2-methylpropane-2-sulfonamide], the melting point was in the range of 249 to 250 °C. The IC50 in series [1] is 500 to 2000 nM.
The like results for `COc1ccc2c(C#N)c(-c3ccc(NS(=O)(=O)C(C)(C)C)nn3)n(C3CCC3)c2c1` [compound 278, N-[6-(3-cyano-1-cyclobutyl-6-methoxy-1H-indol-2-yl)pyridazin-3-yl]-2-methylpropane-2-sulfonamide] were, in that order, 218 to 220 °C and 500 to 2000 nM.
For the compound `Cc1ccc2c(C#N)c(-c3ncc(S(=O)(=O)N[C@H](C)C(F)(F)F)cn3)n(C3CCC3)c2c1` [compound 181, 2-(3-cyano-1-cyclobutyl-6-methyl-1H-indol-2-yl)-N-[(2R)-1,1,1-trifluoropropan-2-yl]pyrimidine-5-sulfonamide], the melting point is 143 to 145 °C. Also, the half-inhibitory concentration (IC50) in series [1] is less than 500 nM.
In the same order, the values of `Cc1cc2c(cc1F)c(C#N)c(-c1ccc(S(=O)(=O)N[C@@H](C)C(F)(F)F)cn1)n2-c1ccc(C#N)cn1` [compound 743, 6-[3-cyano-1-(5-cyanopyridin-2-yl)-5-fluoro-6-methyl-1H-indol-2-yl]-N-[(2S)-1,1,1-trifluoropropan-2-yl]pyridine-3-sulfonamide] are 276 to 277 °C and less than 500 nM.
In turn, `CCc1cc2c(cc1F)c(C(=O)O)c(-c1ccc(NS(=O)(=O)C(C)(C)C)cn1)n2C1CCCCC1` [compound 998, 2-{5-[(tert-butylsulfonyl)amino]pyridin-2-yl}-1-cyclohexyl-6-ethyl-5-fluoro-1H-indole-3-carboxylic acid] displayed a melting point of 224 to 226 °C. The IC50 in series [1] is 500 to 2000 nM.
In the same order, the values of `Cc1cc2c(cc1Cl)c(C#N)c(-c1ccc(S(=O)(=O)NC(CF)CF)cn1)n2C1CCC1` [compound 444, 6-(5-chloro-3-cyano-1-cyclobutyl-6-methyl-1H-indol-2-yl)-N-(1,3-difluoropropan-2-yl)pyridine-3-sulfonamide] are 189 to 193 °C and less than 500 nM.
As to `Cc1ccc2c(C#N)c(-c3ncc(S(=O)(=O)NC(CF)CF)cn3)n(C3CCCC3)c2c1` [compound 135, 2-(3-cyano-1-cyclopentyl-6-methyl-1H-indol-2-yl)-N-(1,3-difluoropropan-2-yl)pyrimidine-5-sulfonamide], the melting point lay within 229 to 231 °C. The IC50 in series [1] was less than 500 nM.
The like results for `Cc1cc2c(cc1F)c(C#N)c(-c1ccc(S(=O)(=O)N[C@@H](C)C(F)(F)F)cn1)n2-c1cccc(F)n1` [compound 815, 6-[3-cyano-5-fluoro-1-(6-fluoropyridin-2-yl)-6-methyl-1H-indol-2-yl]-N-[(2S)-1,1,1-trifluoropropan-2-yl]pyridine-3-sulfonamide] were, in that order, 210 to 212 °C and less than 500 nM.
In the same order, the values of `CC(C)(C)S(=O)(=O)Nc1ccc(-c2c(C#N)c3ccc(OC(F)F)cc3n2CC2CC2)cn1` [compound 269, N-{5-[3-cyano-1-(cyclopropylmethyl)-6-(difluoromethoxy)-1H-indol-2-yl]pyridin-2-yl}-2-methylpropane-2-sulfonamide] are 214 to 215 °C and 500 to 2000 nM.
In the same order, the values of `CCc1ccc2c(C#N)c(-c3ccc(S(=O)(=O)NC(CF)CF)cn3)n(C3CCCC3)c2c1` [compound 310, 6-(3-cyano-1-cyclopentyl-6-ethyl-1H-indol-2-yl)-N-(1,3-difluoropropan-2-yl)pyridine-3-sulfonamide] are 204.5 to 205 °C and less than 500 nM.
Compound `CC(C)n1c(-c2ncc(S(=O)(=O)N[C@@H](C)C(F)(F)F)cn2)c(C#N)c2cc(F)ccc21` [compound 546, 2-[3-cyano-5-fluoro-1-(propan-2-yl)-1H-indol-2-yl]-N-[(2S)-1,1,1-trifluoropropan-2-yl]pyrimidine-5-sulfonamide] returned a melting point of 172 to 176 °C. In addition, the IC50 in series [1] was 500 to 2000 nM.
The like results for `C[C@H](NS(=O)(=O)c1ccc(-c2c(C(N)=O)c3c(F)cc(OC(F)F)cc3n2CC2CC2)nc1)C(F)(F)F` [compound 840, 1-(cyclopropylmethyl)-6-(difluoromethoxy)-4-fluoro-2-(5-{[(2S)-1,1,1-trifluoropropan-2-yl]sulfamoyl}pyridin-2-yl)-1H-indole-3-carboxamide] were, in that order, 211 to 212 °C and less than 500 nM.
`Cc1ccc2c(C#N)c(-c3ccc(S(=O)(=O)NC(CF)CF)cn3)n([C@@H]3CCOC3)c2c1` [compound 54, 6-{3-cyano-6-methyl-1-[(3R)-tetrahydrofuran-3-yl]-1H-indol-2-yl}-N-(1,3-difluoropropan-2-yl)pyridine-3-sulfonamide] came in with a melting point of 152 to 153 °C. Further, the IC50 in series [1] is less than 500 nM.
Compound `COc1cc2c(cc1F)c(C#N)c(-c1ncc(S(=O)(=O)NC(CF)CF)cn1)n2C1CCC1` [compound 150, 2-(3-cyano-1-cyclobutyl-5-fluoro-6-methoxy-1H-indol-2-yl)-N-(1,3-difluoropropan-2-yl)pyrimidine-5-sulfonamide] registered a melting point of 245 to 247 °C. In addition, the IC50 in series [1] is less than 500 nM.
In the same order, the values of `Cc1cc2c(cc1Cl)c(C#N)c(-c1ccc(S(=O)(=O)N[C@@H](C)C(F)(F)F)cn1)n2-c1ccc(F)cn1` [compound 804, 6-[5-chloro-3-cyano-1-(5-fluoropyridin-2-yl)-6-methyl-1H-indol-2-yl]-N-[(2S)-1,1,1-trifluoropropan-2-yl]pyridine-3-sulfonamide] are 210 to 212 °C and less than 500 nM.
In the same order, the values of `Cc1cc2c(cc1F)c(C(=O)O)c(-c1ccc(S(=O)(=O)N[C@@H](C)C(F)(F)F)cn1)n2C1CCC1` [compound 793, 1-cyclobutyl-5-fluoro-6-methyl-2-(5-{[(2S)-1,1,1-trifluoropropan-2-yl]sulfamoyl}pyridin-2-yl)-1H-indole-3-carboxylic acid] are 234 to 240 °C and less than 500 nM.
In the same order, the values of `Cc1ccc2c(C#N)c(-c3ccc(S(=O)(=O)N[C@@H](C)C(F)(F)F)cn3)n(C3CCCC3)c2c1F` [compound 424, 6-(3-cyano-1-cyclopentyl-7-fluoro-6-methyl-1H-indol-2-yl)-N-[(2S)-1,1,1-trifluoropropan-2-yl]pyridine-3-sulfonamide] are 191 to 195 °C and less than 500 nM.
On to `CC(C)(C)NS(=O)(=O)c1ccc(-c2c(C#N)c3cc(F)c(Br)cc3n2-c2ncccn2)nc1` [compound 938, 6-[6-bromo-3-cyano-5-fluoro-1-(pyrimidin-2-yl)-1H-indol-2-yl]-N-tert-butylpyridine-3-sulfonamide], for which the melting point lay within 266 to 268 °C. The IC50 in series [1] was less than 500 nM.
The compound `CC(C)n1c(-c2ccc(S(=O)(=O)N[C@@H](C)C3CC3)cn2)c(C#N)c2ccc(OC(F)(F)F)cc21` [compound 308, 6-[3-cyano-1-(propan-2-yl)-6-(trifluoromethoxy)-1H-indol-2-yl]-N-[(1S)-1-cyclopropylethyl]pyridine-3-sulfonamide] registered a melting point of 144 to 145 °C. The IC50 in series [1] fell in the range of 500 to 2000 nM.
As to `C[C@@H](NS(=O)(=O)c1ccc(-c2c(C#N)c3ccc(C4CC4)cc3n2C2CCCC2)nc1)C(F)(F)F` [compound 211, 6-(3-cyano-1-cyclopentyl-6-cyclopropyl-1H-indol-2-yl)-N-[(2R)-1,1,1-trifluoropropan-2-yl]pyridine-3-sulfonamide], the melting point is 178 to 181 °C. Further, in series [1], the IC50 was less than 500 nM.
The like results for `CC(=O)c1ccc(-n2c(-c3ccc(S(=O)(=O)N[C@@H](C)C(F)(F)F)cn3)c(C#N)c3cc(F)c(C)cc32)s1` [compound 1035, 6-[1-(5-acetylthiophen-2-yl)-3-cyano-5-fluoro-6-methyl-1H-indol-2-yl]-N-[(2S)-1,1,1-trifluoropropan-2-yl]pyridine-3-sulfonamide] were, in that order, 235.6 to 238.7 °C and 500 to 2000 nM.
As for `N#Cc1c(-c2ccc(S(=O)(=O)NC(CF)CF)cn2)n(C2CCCC2)c2cc(OC(F)F)c(F)cc12` [compound 573, 6-[3-cyano-1-cyclopentyl-6-(difluoromethoxy)-5-fluoro-1H-indol-2-yl]-N-(1,3-difluoropropan-2-yl)pyridine-3-sulfonamide], the melting point was in the range of 190 to 194 °C. For the same compound, in series [1], the IC50 is less than 500 nM.
The like results for `CCOc1cc2c(cc1F)c(C#N)c(-c1ccc(S(=O)(=O)N[C@@H](C)C(F)(F)F)cn1)n2C1CCC1` [compound 726, 6-(3-cyano-1-cyclobutyl-6-ethoxy-5-fluoro-1H-indol-2-yl)-N-[(2S)-1,1,1-trifluoropropan-2-yl]pyridine-3-sulfonamide] were, in that order, 193 to 196 °C and less than 500 nM.
In the case of `COc1ccc2c(C#N)c(-c3ncc(S(=O)(=O)N[C@H](C)C(F)(F)F)cn3)n(C3CCC3)c2c1` [compound 183, 2-(3-cyano-1-cyclobutyl-6-methoxy-1H-indol-2-yl)-N-[(2R)-1,1,1-trifluoropropan-2-yl]pyrimidine-5-sulfonamide], the melting point lay in the range of 147 to 149 °C. For the same compound, in series [1], the IC50 lay in the range of 500 to 2000 nM.
The like results for `N#Cc1c(-c2ncc(S(=O)(=O)NC(CF)CF)cn2)n(C2CCCCC2)c2cc(OC(F)F)ccc12` [compound 179, 2-[3-cyano-1-cyclohexyl-6-(difluoromethoxy)-1H-indol-2-yl]-N-(1,3-difluoropropan-2-yl)pyrimidine-5-sulfonamide] were, in that order, 174 to 176 °C and less than 500 nM.
The like results for `Cc1ccc2c(c1)c(C#N)c(-c1ccc(S(=O)(=O)N[C@@H](C)C(F)(F)F)cn1)n2CC1CC1` [compound 372, 6-[3-cyano-1-(cyclopropylmethyl)-5-methyl-1H-indol-2-yl]-N-[(2S)-1,1,1-trifluoropropan-2-yl]pyridine-3-sulfonamide] were, in that order, 175 to 180 °C and less than 500 nM.
